Measurements: paper PMC5325191, “Biotransformation of a potent anabolic steroid, mibolerone, with Cunninghamella blakesleeana, C. echinulata, and Macrophomina phaseolina, and biological activity evaluation of its metabolites” (PLoS ONE, 2017)
“Also recorded” adds a separate entry of the source. Like-named read-outs stand apart in the source and are kept apart here.

What was measured:
[1] = system: progesterone receptor (PR); parameters: method as in PMID 18515094, PMID 24552459, PMID 11953818; conditions: mibolerone eliminates PR expression; 5α-dehydrotestosterone reduces PR to basal levels; ref [1]–[4]; cited from earlier work
[2] = system: Leishmania major promastigotes; test: leishmanicidal activity assay (72 h, microscopic counting); format: cell-based; conditions: for IC50: Leishmania major, read-out: Leishmanicidal activity IC50 ± SD
Description: Leishmania major (DESTO, Pakistan) was cultured in a mixture of NNN-biphasic medium, and normal physiological saline solution. L. major promastigotes were grown on RPMI 1640 medium, supplemented with fetal bovine serum (FBS) (10% heat inactivated). Parasites were centrifuged (at log phase) for 10 min at 2,000 rpm and washed thrice with saline. The final density of fresh culture (10^6 cells/mL) was acquired through dilution of parasites. Sample solution of 1 mg of test compounds was prepared in a mixture 50 μL of DMSO and 950 μL of RPMI media. Fully dissolved compounds were transferred to 96-well plate. The first row of 96-well plate received 180 μL of the medium, while the remaining wells received 100 μL medium. Test compounds (20 μL each) were added into the medium containing wells, followed by serial dilution. The parasite culture (100 μL) was then transferred to each well. Negative controls comprised of only the growth medium, while standard leishmanicidal drugs (amphotericin or pentamidine) were used as positive controls. The plate was then incubated for 72 h at 21–22°C. The inhibitory effect of test compounds on the culture was analyzed microscopically on an improved Neubauer counting chamber. IC50 values were calculated through Ezfit 5.03 Perella Scientific software (USA).

[3] = system: 3T3 cell line (mouse fibroblast); test: MTT cytotoxicity assay, 3T3; format: cell-based; conditions: for IC50: read-out: 3T3 Cell line IC50 ± SD
Description: (§1) MTT (3-(4,5-dimethyl thiazol-2yl)-2,5-diphenyl tetrazolium bromide) assay was employed to study the cytotoxic activity against HeLa (human cervical carcinoma, provided by Prof. Dr. Anwar Ali Siddiqui from Aga Khan University, Karachi, Pakistan), and mouse fibroblast 3T3 (ATCC® CRL-1658, purchased from American Type Culture Collection, ATCC, Virginia, USA) cell lines. The cells (1 × 10^5 /well) were plated in 0.2 mL of DMEM high glucose medium/well in 96-well plates. The cells were treated for 24 hours with test compounds in the range of 25, 50, 75, 100, and 200 μM concentrations, respectively. For the MTT assay, the medium from the wells was removed carefully after 24 hours treatment. Each well was washed with 1X PBS for 2–3 times, and 200 μL of MTT (5 mg/mL) was added in to media containing wells (1:10). The plates were incubated for 4 hours at 37°C, in a 5% CO2 incubator. After incubation, MTT was removed and 0.1 mL of DMSO was added to each well and mixed by keeping on a stirrer. The presence of viable cells was visualized by the development of purple color due to formation of the formazan crystals. The plates were observed under spectrophotometer (Spectramax) and absorbance was taken at 545 and 570 nm for cancer and normal cell lines, respectively.

[4] = biological target: T1, β-glucuronidase enzyme (E.C. 3.2.1.31, bovine liver) (Bos taurus, UniProt A3KMY8); test: β-glucuronidase inhibition assay (p-nitrophenyl-β-D-glucuronide, absorbance 405 nm); format: biochemical; conditions: for β-glucuronidase inhibitory activity IC50 ± SD: in vitro, bovine liver enzyme, 37°C, triplicate
T1 sequence (A3KMY8 24-652): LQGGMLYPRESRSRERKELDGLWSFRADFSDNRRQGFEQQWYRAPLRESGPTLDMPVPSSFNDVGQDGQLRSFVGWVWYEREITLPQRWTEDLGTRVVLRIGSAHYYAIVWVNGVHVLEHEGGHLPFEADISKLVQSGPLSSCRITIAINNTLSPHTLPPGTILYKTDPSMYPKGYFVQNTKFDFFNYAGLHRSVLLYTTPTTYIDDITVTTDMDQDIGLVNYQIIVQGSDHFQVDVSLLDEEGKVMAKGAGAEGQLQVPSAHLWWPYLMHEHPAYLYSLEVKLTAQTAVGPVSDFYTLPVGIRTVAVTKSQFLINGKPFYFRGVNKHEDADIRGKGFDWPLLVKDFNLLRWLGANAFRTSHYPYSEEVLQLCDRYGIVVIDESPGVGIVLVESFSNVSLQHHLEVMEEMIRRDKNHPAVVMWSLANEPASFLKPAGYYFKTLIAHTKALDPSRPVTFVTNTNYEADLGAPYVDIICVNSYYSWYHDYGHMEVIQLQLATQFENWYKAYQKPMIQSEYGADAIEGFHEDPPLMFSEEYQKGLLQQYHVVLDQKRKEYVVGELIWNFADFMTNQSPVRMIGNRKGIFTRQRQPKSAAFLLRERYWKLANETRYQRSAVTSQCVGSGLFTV
Description: The inhibition of β-glucuronidase enzyme (E.C. 3.2.1.31, bovine liver) by test compounds was determined on a spectrophotometer by measuring the absorbance of p-nitrophenol at 405 nm, produced from the substrate. The reaction mixture comprised 185 μL of 0.1 M acetate buffer, and 5 μL of test compound solution, and 10 μL of (1U) enzyme solution in a 96-well plate. The mixture was incubated at 37°C for 30 min. The test compounds were solubilized in DMSO (100%), and 5 μL volume was added in each well (2% of total volume). […] The plates were read on a multiplate reader (SpectraMax plus 384) at 405 nm and 37°C, after addition of 50 μL of 0.4 mM p-nitrophenyl-β-D-glucuronide. All assays were performed in triplicate. IC50 values were calculated through EZ-Fit software (Perrella Scientific Inc., Amherst, MA, USA).

[5] = system: HeLa cancer cell line (human cervical carcinoma); test: MTT cytotoxicity assay, HeLa; format: cell-based; conditions: 24 hours treatment, read-out: HeLa Cell line IC50 ± SD
Description: as §1

[6] = Mus musculus, NIH3T3, 24 hours treatment
[7] = L. major promastigotes, 72 h at 21–22°C

## C[C@]12CCC(=O)C[C@@H]1CC[C@@H]1[C@@H]2CC[C@]2(C)[C@@H](O)CC[C@@H]12 [5α-dehydrotestosterone]
[1]
  dose that eliminates / reduces to basal levels progesterone receptor expression: 10 to 100 nM

## C[C@H]1[C@@H]2[C@H](CC[C@@]3(C)[C@H]2CC[C@]3(C)O)[C@H]2CCC(=O)C=C2[C@@H]1O [Compound 3, 6β,17β-Dihydroxy-7α,17α-dimethylestr-4-en-3-one]
[2]; 72 h
  IC50: 79.09 ± 0.06 µM
[3]; [6]
  IC50: 65.6 ± 2.5 µM
[4]
  β-glucuronidase inhibitory activity IC50 ± SD: Inactive
[5]; Homo sapiens, HeLa, 24 h
  IC50: 108 ± 4 µM

## CC1C(O)C2=CC(=O)CCC2(O)C2CCC3(C)C(CCC3(C)O)C12 (stereo not drawn) [Compound 4, 6β,10β,17β-Trihydroxy-7α,17α-dimethylestr-4-en-3-one]
[2]; [7]
  Leishmanicidal activity IC50 ± SD: Inactive
[3]; [6]
  IC50: 89.4 ± 2.7 µM
[4]
  β-glucuronidase inhibitory activity IC50 ± SD: Inactive
[5]; Homo sapiens, HeLa, 24 h
  IC50: 152 ± 2.1 µM

## N=C(N)c1ccc(OCCCCCOc2ccc(C(=N)N)cc2)cc1 [Pentamidine, reference compound]
[2]; [7]
  IC50: 5.09 ± 0.09 µM

## C[C@@H]1[C@H](O)[C@@H](C)/C=C/C=C/C=C/C=C/C=C/C=C/C=C/[C@H](O[C@@H]2O[C@H](C)[C@@H](O)[C@H](N)[C@@H]2O)C[C@@H]2O[C@](O)(C[C@@H](O)C[C@@H](O)[C@H](O)CC[C@@H](O)C[C@@H](O)CC(=O)O[C@H]1C)C[C@H](O)[C@H]2C(=O)O [Amphotericin B, reference compound]
[2]; 72 h
  IC50: 0.29 ± 0.05 µM

## CC1CC2=CC(=O)CCC2(O)C2CCC3(C)C(CCC3(C)O)C12 (stereo not drawn) [Compound 2, 10β,17β-Dihydroxy-7α,17α-dimethylestr-4-en-3-one]
[2]; [7]
  Leishmanicidal activity IC50 ± SD: Inactive
[3]; [6]
  IC50: 43.3 ± 7.7 µM
[4]
  β-glucuronidase inhibitory activity IC50 ± SD: Inactive
[5]; Homo sapiens, HeLa, 24 h
  IC50: 46.5 ± 5.4 µM

## C[C@@H]1CC2=CC(=O)CC[C@@H]2[C@H]2CC[C@@]3(C)[C@@H](CC[C@]3(C)O)[C@@H]21 [Compound 1, 17β-Hydroxy-7α,17α-dimethylestr-4-en-3-one, reference compound]
[2]; 72 h
  IC50: 29.6 ± 0.88 µM
[1]
  dose that eliminates / reduces to basal levels progesterone receptor expression: 1 nM
[3]; [6]
  IC50: 46.3 ± 11.7 µM
[4]
  IC50: 43 ± 1.24 µM
[5]; Homo sapiens, HeLa, 24 h
  IC50: 35.7 ± 4.46 µM

## N.N.[Cl][Pt][Cl] [Cisplatin, reference compound]
[3]; 24 hours treatment
  IC50: 39.7 ± 2.7 µM
[5]
  IC50: 38.5 ± 1.8 µM

## CC1CC2=CC(=O)CCC2C2C(O)CC3(C)C(CCC3(C)O)C12 (stereo not drawn) [Compound 8, 11β,17β-Dihydroxy-7α,17α-dimethylestr-4-en-3-one]
[2]; 72 h
  IC50: 70.09 ± 0.05 µM
[3]; 24 hours treatment
  3T3 Cell line IC50 ± SD: no cytotoxicity; also recorded: Inactive
[4]
  β-glucuronidase inhibitory activity IC50 ± SD: Inactive
[5]
  IC50: 34.1 ± 5.3 µM
[5]; Homo sapiens, HeLa, 24 h
  IC50: 34.2 ± 5.3 µM
